In PubChem BioAssay (NCI) one finds GI50 and TGI data, which are given here for seven compounds.

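Five concentrations, 48 hours, 96-well plates. GI50: concentration for 50% inhibition of growth. At the TGI there is no net growth.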

What all share (experiment): NCI tumour cell line growth inhibition, 48 h
The subject of assay [1] is KM12 colon.
Assay [2] concerns PC-3 prostate.
In assay [3] the test system is TK-10 renal.
The test system of assay [4] is LOX IMVI melanoma.
Assay [5] has as its system NCI-H460 lung.
The test system of assay [6] is HS 578T breast.
The test system of assay [7] is HOP-92 NSCLC.
Assay [8] concerns EKVX NSCLC.
For assay [9], the system named is OVCAR-8 ovarian.
The test system of assay [10] is SNB-19 CNS.
Assay [11] concerns HCT-116 colon.
Assay [12] has as its system HT29 colon.
The subject of assay [13] is SK-OV-3 ovarian.
Assay [14] deals with MDA-MB-468 breast.
Assay [15] has as its system DU-145 prostate.
In assay [16] the test system is HCC-2998 colon.
Assay [17] relates to MALME-3M melanoma.
Assay [18] has as its system RXF 393 renal.
The test system of assay [19] is A498 renal.
Assay [20] relates to UACC-257 melanoma.
Assay [21] relates to SF-539 CNS.
The subject of assay [22] is NCI-H23 lung.
The subject of assay [23] is UO-31 renal.
For assay [24], the system named is SK-MEL-5 melanoma.
Assay [25] deals with A549 NSCLC.
The subject of assay [26] is OVCAR-5 ovarian.
For assay [27], the system named is CCRF-CEM leukemia.
Assay [28] relates to MDA-MB-435.
Assay [29] has as its system SK-MEL-28 melanoma.
In assay [30] the test system is NCI-H522 lung.
Assay [31] deals with SR leukemia.
Assay [32] deals with M14 melanoma.
Assay [33] has as its system T-47D breast.
Assay [34] has as its system SNB-75 CNS.
Assay [35] concerns MDA-MB-231 breast.
Assay [36] relates to ACHN renal.
Assay [37] deals with IGROV1 ovarian.
For assay [38], the system named is SK-MEL-2 melanoma.
Assay [39] relates to RPMI-8226 leukemia.
The subject of assay [40] is SF-268 CNS.
Assay [41] concerns COLO 205 colon.
The subject of assay [42] is CAKI-1 renal.
In assay [43] the test system is SF-295 CNS.
In assay [44] the test system is MCF7 breast.
For assay [45], the system named is OVCAR-4 ovarian.
For assay [46], the system named is HL-60(TB) leukemia.
In assay [47] the test system is BT-549 breast.
The subject of assay [48] is HOP-62 NSCLC.
Assay [49] relates to SW-620 colon.
The test system of assay [50] is U251 CNS.
Assay [51] deals with SN12C renal.
The subject of assay [52] is 786-0 renal.
Assay [53] has as its system HCT-15 colon.
For assay [54], the system named is OVCAR-3 ovarian.
Assay [55] relates to K-562 leukemia.
For assay [56], the system named is UACC-62 melanoma.
Assay [57] concerns NCI-H226 lung.
Assay [58] relates to NCI/ADR-RES ovarian.
In assay [59] the test system is MOLT-4 leukemia.

As for `CC1(c2ccccc2)NC(=O)N(CC(=O)Nc2ccc(C(=O)/C=C/c3ccc(Cl)cc3)cc2)C1=O` (stereo not given), the GI50 in assay [1] was 2.54 µM; in assay [2], 3.61 µM; in assay [3], 10.8 µM; in assay [4], 2.95 µM; in [5], 12 µM; in [6], 12.7 µM. In addition, the GI50 in assay [7] was 6.25 µM; in [8] it was 4.64 µM; in assay [9], 10.7 µM; in [10], 11.2 µM; in [11], 1.37 µM; in [12], 3.7 µM. In addition, the GI50 in assay [13] was 16 µM; in [14], 2.85 µM; in assay [15], 12.3 µM; in assay [16], 1.79 µM; in [17], 13.1 µM; in assay [18] it was 2.97 µM. For the same compound, the GI50 in assay [19] is 14.4 µM; in assay [20], 11.3 µM; in [21], 6.15 µM; in assay [22] it was 11.7 µM; in assay [23], 4.06 µM; in assay [24], 4.72 µM. The GI50 in assay [25] is 4.25 µM; in assay [26], 13.3 µM; in assay [27] it was 4 µM; in assay [28], 2.15 µM; in assay [29], 10.8 µM; in [30] it was 6.69 µM. The GI50 was 2.99 µM in assay [31]; 3.22 µM in [32]; 2.59 µM in assay [33]; 1.48 µM in [34]; 5.97 µM in assay [35]; 4.92 µM in assay [36]. For the same compound, the GI50 is 9.27 µM in [37]; 11.5 µM in [38]; 1.93 µM in [39]; 6.51 µM in [40]; 13.2 µM in assay [41]; 5.51 µM in assay [42]. Moreover, the GI50 in assay [43] is 4.34 µM; in assay [44] it was 1.96 µM; in assay [45] it was 7.35 µM; in [46], 4.06 µM; in assay [47], 4.78 µM; in [48] it was 12.5 µM. Moreover, the GI50 in assay [49] is 5.93 µM; in assay [50] it was 3.16 µM; in assay [51], 7.96 µM; in assay [52], 7.48 µM; in [53], 4.55 µM; in [54] it was 7.1 µM. In addition, the GI50 in assay [55] is 3.09 µM; in [56], 4.07 µM; in assay [57] it was 9.09 µM; in [58], 13.5 µM; in assay [59], 3.02 µM. Besides, the TGI in assay [1] is 6.87 µM; in assay [2], 27.6 µM; in assay [3] it was 35.4 µM; in [4], 11.1 µM; in assay [5] it was 27.8 µM; in assay [6] it was above 100 µM. In addition, the TGI in assay [7] stood at 53.7 µM; in assay [8] it was 23.5 µM; in assay [9], 52.5 µM; in [10], 24.4 µM; in assay [11] it was 2.8 µM; in assay [12], 15.7 µM. The TGI was 44.6 µM in assay [13]; 12.3 µM in assay [14]; 26.2 µM in [15]; 3.63 µM in [16]; 30.8 µM in [17]; 13.6 µM in [18]. Moreover, the TGI was 38.2 µM in [19]; 25.7 µM in assay [20]; 19.1 µM in assay [21]; 24.8 µM in [22]; 18 µM in assay [23]; 16.6 µM in assay [24]. The TGI in assay [25] was 20 µM; in [26] it was 29 µM; in assay [27], 30.8 µM; in assay [28], 4.83 µM; in assay [29], 23.2 µM; in assay [30] it was 30 µM. Moreover, the TGI in assay [31] is above 100 µM; in assay [32] it was 12 µM; in [33], 14.6 µM; in assay [34] it was 21.8 µM; in assay [35], 21.6 µM; in assay [36], 17.7 µM. In addition, the TGI in assay [37] stood at 22.3 µM; in assay [38] it was 28 µM; in assay [39] it was 5.07 µM; in assay [40], 31.5 µM; in assay [41] it was 29.7 µM; in assay [42], 20.7 µM. In addition, the TGI in assay [43] was 16.6 µM; in assay [44] it was 5.28 µM; in assay [45] it was 36.1 µM; in [46] it was 30.9 µM; in assay [47] it was 19 µM; in [48], 29.8 µM. For the same compound, the TGI in assay [49] came to 20.7 µM; in assay [50] it was 14.3 µM; in assay [51], 25.4 µM; in assay [52], 21 µM; in [53], 18.4 µM; in assay [54] it was 21.9 µM. Also, the TGI in [55] was 13.1 µM; in assay [56], 17.8 µM; in assay [57], 52.3 µM; in [58], 46.4 µM; in [59], 23.1 µM.

For `c1ccc(Nc2ncc(-c3ccccc3)o2)cc1`, in [14], the GI50 is 8.41 µM and the TGI was above 25 µM.

`O=C1NC(=NCc2ccccc2)S/C1=C\c1ccc2ncccc2c1`: in assay [14], the GI50 was above 16.2 µM and the TGI was above 25 µM.

On to `O=[N+]([O-])c1cc([N+](=O)[O-])c(C(F)(F)F)cc1NN=C(c1ccc(O)cc1)c1ccc(O)cc1`, for which, in assay [14], the GI50 is 3.21 µM and the TGI was 15.4 µM.

On to `CC[C@@H](c1ccc(O)c(O)c1)[C@@H](CC)c1ccc(O)c(O)c1`, for which, in assay [14], the GI50 was 2.09 µM and the TGI amounted to 5.51 µM.

In the case of `N=C(N)c1ccc(OCCCCCCCCCCOc2ccc(C(=N)N)cc2)cc1`, in assay [14], the GI50 was 0.414 µM and the TGI stood at 1.8 µM.

`NC(=S)N/N=C\c1nccc2c(C(F)(F)F)cccc12`: in [14], the GI50 is 0.199 µM and the TGI stood at 0.612 µM.
